Measured values as given in patent publication US12612622B2, “Targeted mutagenesis using base editors” (Qi Biodesign Biotechnology Company Limited, priority 2018, dated 2026).

Test system: OsACCase gene
Assay: Base editing (pZRH-PBE + individual sgRNAs) of OsACCase functional domain in transgenic M0 rice plants
Format: in vivo
Details: for Frequency of indel (%) / Frequency of substitution (%) / No. of WT / No. of indel / No. of substitution: transgenic M0 plants; for No. of WT / No. of indel / No. of substitution: per sgRNA target
Source text: For individual cloning, the following method is used. APOBEC1, partial nCas9 and UGI sequences (SEQ ID NO: 129) without BsaI were synthesized commercially (GenScript, Nanjing, China) and cloned into the pUC57 (SEQ ID NO: 130) as intermediate vector. […] The full length APOBEC1-nCas9-UGI was excised using XmaJI and SacI, then was subcloned into pHUE411 that had been digested using the same two enzymes. The resultant vector pZRH-PBE (SEQ ID NO: 133) was used to construct sgRNA expression plasmids using restriction enzyme site BsaI.

[1] = edited allele with the substitution of the same table line

Substance | No. of alleles [1] | Frequency of indel (%) | Frequency of substitution (%) | No. of WT | No. of indel | No. of substitution | No. of alleles (unedited target site sequence) | No. of alleles (edited allele with the substitution of the same table line, edited allele (SEQ ID NO: 77)) | No. of alleles (edited allele with the substitution of the same table line, edited allele (SEQ ID NO: 78)) | No. of alleles (edited allele with the substitution of the same table line, edited allele (SEQ ID NO: 86)) | No. of alleles (edited allele with the substitution of the same table line, edited allele (SEQ ID NO: 87)) | No. of alleles (edited allele with the substitution of the same table line, edited allele (SEQ ID NO: 110)) | No. of alleles (edited allele with the substitution of the same table line, edited allele (SEQ ID NO: 111)) | No. of alleles (edited allele with the substitution of the same table line, edited allele (SEQ ID NO: 112)) | No. of alleles (edited allele with the substitution of the same table line, edited allele (SEQ ID NO: 120)) | No. of alleles (edited allele with the substitution of the same table line, edited allele (SEQ ID NO: 121))
R20: sgRNA in pZRH-PBE; OsACCase target site TTTACACTTACATTTGTGACTGG (SEQ ID NO: 73) (expressed or natural sequence; the letters are possibly those of the target site) | 1 | 0.0% | 16.7% | 11 | 0 | 2 | 2 | – | – | – | – | – | – | – | – | –
R21: sgRNA in pZRH-PBE; OsACCase target site AGCTCCCACATGCAGTTGGGTGG (SEQ ID NO: 76) (expressed or natural sequence; target site or template, no part of the molecule) | – | 9.5% | 23.8% | 14 | 2 | 5 | 4 | 2 | 4 | – | – | – | – | – | – | –
R22: sgRNA in pZRH-PBE; OsACCase target site ACTGTTTCAGATGACCTTGAAGG (SEQ ID NO: 79) (expressed or natural sequence; the letters are possibly those of the target site) | 4 | 0.0% | 18.8% | 13 | 0 | 3 | 2 | – | – | – | – | – | – | – | – | –
R23: sgRNA in pZRH-PBE; OsACCase target site GCGTTTCTAATATATTGAGGTGG (SEQ ID NO: 81) (expressed or natural sequence; target site or template, no part of the molecule) | 9 | 0.0% | 22.2% | 21 | 0 | 6 | 3 | – | – | – | – | – | – | – | – | –
R24: sgRNA in pZRH-PBE; OsACCase target site TATGTTCCTGCCTACATTGGTGG (SEQ ID NO: 83) (expressed or natural sequence; target site or template, no part of the molecule) | 2 | 14.3% | 9.5% | 16 | 3 | 2 | 2 | – | – | – | – | – | – | – | – | –
R25: sgRNA in pZRH-PBE; OsACCase target site ACTTCCAGTAACAACACCGTTGG (SEQ ID NO: 85) (expressed or natural sequence; the letters are possibly those of the target site) | – | 0.0% | 40.0% | 3 | 0 | 2 | 1 | – | – | 2 | 1 | – | – | – | – | –
R26: sgRNA in pZRH-PBE; OsACCase target site AACAACACCGTTGGACCCACCGG (SEQ ID NO: 88) (expressed or natural sequence; target site or template, no part of the molecule) | 4 | 0.0% | 71.4% | 2 | 0 | 5 | 4 | – | – | – | – | – | – | – | – | –
R27: sgRNA in pZRH-PBE; OsACCase target site GAACTCGTGTGATCCTCGAGCGG (SEQ ID NO: 90) (chemistry not fully specified; the letters are possibly those of the target site) | 3 | 0.0% | 15.4% | 11 | 0 | 2 | 1 | – | – | – | – | – | – | – | – | –
R28: sgRNA in pZRH-PBE; OsACCase target site GTTACTGGCAGAGCAAAGCTTGG (SEQ ID NO: 92) (expressed or natural sequence; target site or template, no part of the molecule) | 6 | 14.3% | 42.9% | 3 | 1 | 3 | 0 | – | – | – | – | – | – | – | – | –
R29: sgRNA in pZRH-PBE; OsACCase target site CAAACTATCCCTGCTGACCCTGG (SEQ ID NO: 94) (expressed or natural sequence; target site or template, no part of the molecule) | – | 12.0% | 60.0% | 7 | 3 | 15 | 8 | – | – | – | – | – | – | – | – | –
R30: sgRNA in pZRH-PBE; OsACCase target site ATGGCTGCAGAGCTACGAGGAGG (SEQ ID NO: 99) (expressed or natural sequence; target site or template, no part of the molecule) | – | 12.5% | 56.3% | 5 | 2 | 9 | 5 | – | – | – | – | – | – | – | – | –
R31: sgRNA in pZRH-PBE; OsACCase target site GACTGCAAAAGGCAATGTTCTGG (SEQ ID NO: 102) (expressed or natural sequence; target site or template, no part of the molecule) | 1 | 0.0% | 5.9% | 16 | 0 | 1 | 1 | – | – | – | – | – | – | – | – | –
R32: sgRNA in pZRH-PBE; OsACCase target site CCCAGACCGCATTGAGTGCTATG (SEQ ID NO: 104) (expressed or natural sequence; target site or template, no part of the molecule) | 1 | 10.5% | 21.1% | 13 | 2 | 4 | 2 | – | – | – | – | – | – | – | – | –
R33: sgRNA in pZRH-PBE; OsACCase target site CCTTTGTCTACATTCCCATGGCT (SEQ ID NO: 107) (expressed or natural sequence; target site or template, no part of the molecule) | 1 | 5.9% | 41.2% | 9 | 1 | 7 | 1 | – | – | – | – | – | – | – | – | –
R34: sgRNA in pZRH-PBE; OsACCase target site CCAGTGGGTGTGATAGCTGTGGA (SEQ ID NO: 109) (expressed or natural sequence; the letters are possibly those of the target site) | – | 0.0% | 71.4% | 4 | 0 | 10 | 7 | – | – | – | – | 3 | 2 | 4 | – | –
R35: sgRNA in pZRH-PBE; OsACCase target site CCAAGGGAAATGGTTAGGTGCTA (SEQ ID NO: 113) (guide CCAAGGGAAATGGTTAGGTGGTA; sgRNA expressed from vector pZRH-PBE, further chemistry not given here; the letters are possibly those of the target site) | 2 | 0.0% | 12.5% | 7 | 0 | 1 | 0 | – | – | – | – | – | – | – | – | –
R36: sgRNA in pZRH-PBE; OsACCase target site CCTCGAGCGGCTATCCGTGGTGT (SEQ ID NO: 115) (expressed or natural sequence; the letters are possibly those of the target site) | 1 | 0.0% | 35.7% | 9 | 0 | 5 | 3 | – | – | – | – | – | – | – | – | –
R37: sgRNA in pZRH-PBE; OsACCase target site CCTGAGAACTCGTGTGATCCTCG (SEQ ID NO: 119) (expressed or natural sequence; target site or template, no part of the molecule) | – | 45.5% | 18.2% | 4 | 5 | 2 | 1 | – | – | – | – | – | – | – | 1 | 2
R38: sgRNA in pZRH-PBE; OsACCase target site CCTGTTGCATACATTCCTGAGAA (SEQ ID NO: 122) (expressed or natural sequence; target site or template, no part of the molecule) | – | 28.6% | 35.7% | 5 | 4 | 5 | 4 | – | – | – | – | – | – | – | – | –
